Each compound was assayed against Lck enzyme (Homo sapiens (Human), UniProt P06239) (assay: Lck enzyme activity, IMAP fluorescence polarization assay). Conditions: 60 min pre-incubation, 6 μM ATP, bin bound in μM.
Chain of Lck enzyme (P06239 whole entry): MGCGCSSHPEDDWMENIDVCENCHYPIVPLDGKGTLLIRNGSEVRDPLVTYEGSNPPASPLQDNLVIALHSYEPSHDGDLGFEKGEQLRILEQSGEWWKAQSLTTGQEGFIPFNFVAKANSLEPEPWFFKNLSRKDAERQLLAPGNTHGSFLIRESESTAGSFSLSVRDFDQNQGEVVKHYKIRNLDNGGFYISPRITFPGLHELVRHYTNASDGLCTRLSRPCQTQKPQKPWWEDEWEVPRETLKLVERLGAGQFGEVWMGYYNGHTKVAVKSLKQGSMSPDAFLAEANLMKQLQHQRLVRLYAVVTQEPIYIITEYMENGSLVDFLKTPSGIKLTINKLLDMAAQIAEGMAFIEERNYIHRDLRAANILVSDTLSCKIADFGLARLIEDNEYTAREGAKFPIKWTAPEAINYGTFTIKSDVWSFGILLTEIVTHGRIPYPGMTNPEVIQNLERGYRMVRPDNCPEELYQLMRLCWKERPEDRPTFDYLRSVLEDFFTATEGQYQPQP

| SMILES | EC50 Lck activity values [µM] |
| --- | --- |
| C=CC(=O)N1CCC[C@H]1c1nc(-c2ccc(C(=O)Nc3cc(C(F)(F)F)ccn3)cc2)c2c(N)nccn12 [Example 62, (S)-4-(3-(1-acryloylpyrrolidin-2-yl)-8-aminoimidazo[1,5-a]pyrazin-1-yl)-N-(4-(trifluoromethyl)pyridin-2-yl)benzamide] | <1 |
| CC#CC(=O)N1CCCC[C@H]1c1nc(-c2ccc(C(=O)Nc3cc(CCC)ccn3)cc2)c2c(N)nccn12 [Example 64, (S)-4-(8-amino-3-(1-but-2-ynoylpiperidin-2-yl)imidazo[1,5-a]pyrazin-1-yl)-N-(4-propylpyridin-2-yl)benzamide] | <1 |
| CCCc1ccnc(NC(=O)c2ccc(-c3nc([C@H](C)N(C)C(=O)/C=C/CN(C)C)n4ccnc(N)c34)cc2)c1 [Example 76, (S,E)-4-(8-amino-3-(1-(4-(dimethylamino)-N-methylbut-2-enamido)ethyl)imidazo[1,5-a]pyrazin-1-yl)-N-(4-propylpyridin-2-yl)benzamide] | <1 |
| Nc1nccn2c([C@@H]3CCCN3C(=O)/C=C/c3ccccc3)nc(-c3ccc(C(=O)Nc4ccccn4)cc3)c12 [Example 104, (S,E)-4-(8-amino-3-(1-cinnamoylpyrrolidin-2-yl)imidazo[1,5-a]pyrazin-1-yl)-N-(pyridin-2-yl)benzamide] | <1 |
| C=CC(=O)N1CCC[C@H]1c1nc(-c2ccc(C(=O)Nc3cc(C#N)ccn3)cc2)c2c(N)nccn12 [Example 122, (S)-4-(3-(1-acryloylpyrrolidin-2-yl)-8-aminoimidazo[1,5-a]pyrazin-1-yl)-N-(4-cyanopyridin-2-yl)benzamide] | <1 |
| C=CC(=O)N1CCC[C@H]1c1nc(-c2ccc(C(=O)Nc3cc(C)ccn3)cc2)c2c(N)nccn12 [Example 124, (S)-4-(3-(1-acryloylpyrrolidin-2-yl)-8-aminoimidazo[1,5-a]pyrazin-1-yl)-N-(4-methylpyridin-2-yl)benzamide] | <1 |
| CC#CC(=O)N1CCC[C@H]1c1nc(-c2ccc(C(=O)Nc3cc(-c4ccccc4)ccn3)cc2)c2c(N)nccn12 [Example 132, (S)-4-(8-amino-3-(1-but-2-ynoylpyrrolidin-2-yl)imidazo[1,5-a]pyrazin-1-yl)-N-(4-phenylpyridin-2-yl)benzamide] | <1 |

The compounds below were run against Lyn enzyme (Homo sapiens (Human), UniProt P07948) (assay: Lyn enzyme activity, IMAP fluorescence polarization assay). Conditions: IMAP; 60 min pre-incubation; 2 μM ATP; bin bound in μM.
Chain of Lyn enzyme (P07948 whole entry): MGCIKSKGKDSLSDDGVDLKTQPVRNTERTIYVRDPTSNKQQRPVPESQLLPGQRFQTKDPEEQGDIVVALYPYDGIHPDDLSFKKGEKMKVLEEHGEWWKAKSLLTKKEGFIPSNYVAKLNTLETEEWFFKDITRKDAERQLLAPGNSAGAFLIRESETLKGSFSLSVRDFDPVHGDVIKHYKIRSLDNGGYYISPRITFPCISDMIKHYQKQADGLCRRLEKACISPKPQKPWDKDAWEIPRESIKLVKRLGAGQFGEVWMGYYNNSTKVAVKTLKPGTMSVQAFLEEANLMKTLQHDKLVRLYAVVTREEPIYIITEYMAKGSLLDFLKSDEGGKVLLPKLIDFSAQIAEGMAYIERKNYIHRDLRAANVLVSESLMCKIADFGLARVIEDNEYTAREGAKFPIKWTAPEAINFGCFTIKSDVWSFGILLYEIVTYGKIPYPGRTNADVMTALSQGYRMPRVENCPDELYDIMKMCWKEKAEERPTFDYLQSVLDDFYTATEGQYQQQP

| SMILES | EC50 Lyn activity values [µM] |
| --- | --- |
| C=CC(=O)N1CCC[C@H]1c1nc(-c2ccc(C(=O)Nc3cc(C)ccn3)cc2)c2c(N)nccn12 [Example 124, (S)-4-(3-(1-acryloylpyrrolidin-2-yl)-8-aminoimidazo[1,5-a]pyrazin-1-yl)-N-(4-methylpyridin-2-yl)benzamide] | <1 |

Each compound was assayed against Btk enzyme (His-Btk) (Homo sapiens (Human), UniProt Q06187) (assay: Btk enzyme activity, IMAP fluorescence polarization assay). Conditions: 60 min pre-incubation, 5 μM ATP, bin bound in nM.
Chain of Btk enzyme (His-Btk) (Q06187 whole entry): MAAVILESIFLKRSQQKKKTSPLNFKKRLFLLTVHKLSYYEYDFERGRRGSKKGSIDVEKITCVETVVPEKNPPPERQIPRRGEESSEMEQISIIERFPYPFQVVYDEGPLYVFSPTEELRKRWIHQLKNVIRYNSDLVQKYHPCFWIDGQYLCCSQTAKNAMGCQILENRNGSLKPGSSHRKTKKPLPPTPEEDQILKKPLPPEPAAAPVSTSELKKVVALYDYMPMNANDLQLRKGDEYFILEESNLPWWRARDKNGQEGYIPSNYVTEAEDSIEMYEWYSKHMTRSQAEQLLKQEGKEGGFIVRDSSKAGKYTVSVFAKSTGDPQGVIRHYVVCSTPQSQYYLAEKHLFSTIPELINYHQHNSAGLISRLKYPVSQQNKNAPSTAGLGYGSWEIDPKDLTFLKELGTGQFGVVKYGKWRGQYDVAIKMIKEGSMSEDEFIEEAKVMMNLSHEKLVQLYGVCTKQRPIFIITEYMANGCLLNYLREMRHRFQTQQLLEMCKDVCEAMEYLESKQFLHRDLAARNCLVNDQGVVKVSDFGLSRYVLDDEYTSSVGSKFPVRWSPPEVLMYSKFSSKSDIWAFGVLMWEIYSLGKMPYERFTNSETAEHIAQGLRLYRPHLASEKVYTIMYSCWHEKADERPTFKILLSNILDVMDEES

| SMILES | EC50 Btk activity values [nM] |
| --- | --- |
| Nc1nccn2c([C@@H]3CCCN3C(=O)c3ccnc(Cl)n3)nc(-c3ccc(C(=O)Nc4ccccn4)c(F)c3)c12 [Example 84, (S)-4-(8-amino-3-(1-(2-chloropyrimidine-4-carbonyl)pyrrolidin-2-yl)imidazo[1,5-a]pyrazin-1-yl)-2-fluoro-N-(pyridin-2-yl)benzamide] | <100 |
| CC#CC(=O)N1CCCC[C@H]1c1nc(-c2ccc(C(=O)Nc3nccc(C)n3)cc2)c2c(N)nccn12 [Example 89, (S)-4-(8-amino-3-(1-but-2-ynoylpiperidin-2-yl)imidazo[1,5-a]pyrazin-1-yl)-N-(4-methylpyrimidin-2-yl)benzamide] | <100 |
| COC/C=C/C(=O)NCc1nc(-c2ccc(C(=O)Nc3ccccn3)cc2)c2c(N)nccn12 [Example 95, (E)-4-(8-amino-3-((4-methoxybut-2-enamido)methyl)imidazo[1,5-a]pyrazin-1-yl)-N-(pyridin-2-yl)benzamide] | <100 |
| CC#CC(=O)N1CCC[C@H]1c1nc(-c2ccc(C(=O)Nc3cc(N4CCCC4)ccn3)cc2)c2c(N)nccn12 [Example 96, (S)-4-(8-amino-3-(1-but-2-ynoylpyrrolidin-2-yl)imidazo[1,5-a]pyrazin-1-yl)-N-(4-(pyrrolidin-1-yl)pyridin-2-yl)benzamide] | <100 |
| COC/C=C/C(=O)N1CCCCCC1c1nc(-c2ccc(C(=O)Nc3ccccn3)cc2)c2c(N)nccn12 (stereo not drawn) [Example 97, (E)-4-(8-amino-3-(1-(4-methoxybut-2-enoyl)azepan-2-yl)imidazo[1,5-a]pyrazin-1-yl)-N-(pyridin-2-yl)benzamide] | <100 |
| COC/C=C/C(=O)N1CCC[C@H]1c1nc(-c2ccc(C(=O)Nc3cc(C#N)ccn3)cc2)c2c(N)nccn12 [Example 98, (S,E)-4-(8-amino-3-(1-(4-methoxybut-2-enoyl)pyrrolidin-2-yl)imidazo[1,5-a]pyrazin-1-yl)-N-(4-cyanopyridin-2-yl)benzamide] | <100 |
| CC#CC(=O)N1CCC[C@H]1c1nc(-c2ccc(C(=O)Nc3ccccn3)c(OC)c2)c2c(N)nccn12 [Example 99, (S)-4-(8-amino-3-(1-but-2-ynoylpyrrolidin-2-yl)imidazo[1,5-a]pyrazin-1-yl)-2-methoxy-N-(pyridin-2-yl)benzamide] | <100 |
| COC/C=C/C(=O)N1CCC[C@H]1c1nc(-c2ccc(C(=O)Nc3ccccn3)c(OC)c2)c2c(N)nccn12 [Example 103, (S,E)-4-(8-amino-3-(1-(4-methoxybut-2-enoyl)pyrrolidin-2-yl)imidazo[1,5-a]pyrazin-1-yl)-2-methoxy-N-(pyridin-2-yl)benzamide] | <100 |
| C[C@H](NC(=O)c1ccnc(Cl)n1)c1nc(-c2ccc(C(=O)Nc3ccccn3)cc2)c2c(N)nccn12 [Example 105, (S)-N-(1-(8-amino-1-(4-(pyridin-2-ylcarbamoyl)phenyl)imidazo[1,5-a]pyrazin-3-yl)ethyl)-2-chloropyrimidine-4-carboxamide] | <100 |
| CC#CC(=O)N1CCC[C@H]1c1nc(-c2ccc(C(=O)Nc3cc(F)ccn3)cc2)c2c(N)nccn12 [Example 106, (S)-4-(8-amino-3-(1-but-2-ynoylpyrrolidin-2-yl)imidazo[1,5-a]pyrazin-1-yl)-N-(4-fluoropyridin-2-yl)benzamide] | <100 |
| CC#CC(=O)NCc1nc(-c2ccc(C(=O)Nc3ccccn3)cc2)c2c(N)nccn12 [Example 112, 4-(8-amino-3-(but-2-ynamidomethyl)imidazo[1,5-a]pyrazin-1-yl)-N-(pyridin-2-yl)benzamide] | <100 |
| CC#CC(=O)N(C)[C@@H](C)c1nc(-c2ccc(C(=O)Nc3cc(CCC)ccn3)cc2)c2c(N)nccn12 [Example 113, (S)-4-(8-amino-3-(1-(N-methylbut-2-ynamido)ethyl)imidazo[1,5-a]pyrazin-1-yl)-N-(4-propylpyridin-2-yl)benzamide] | <100 |
| CCCc1ccnc(NC(=O)c2ccc(-c3nc([C@@H]4CCCCN4C(=O)/C=C/COC)n4ccnc(N)c34)cc2F)c1 [Example 114, (S,E)-4-(8-amino-3-(1-(4-methoxybut-2-enoyl)piperidin-2-yl)imidazo[1,5-a]pyrazin-1-yl)-2-fluoro-N-(4-propylpyridin-2-yl)benzamide] | <100 |
| Nc1nccn2c([C@@H]3CCCN3C(=O)c3ccnc(Cl)n3)nc(-c3ccc(C(=O)Nc4cc(C(F)(F)F)ccn4)cc3)c12 [Example 119, (S)-4-(8-amino-3-(1-(2-chloropyrimidine-4-carbonyl)pyrrolidin-2-yl)imidazo[1,5-a]pyrazin-1-yl)-N-(4-(trifluoromethyl)pyridin-2-yl)benzamide] | <100 |

Same assay, conditions: 60 min pre-incubation, 5 μM ATP, bin bound in μM

| SMILES | EC50 Btk activity values [nM] |
| --- | --- |
| COC/C=C/C(=O)N1CCCC[C@H]1c1nc(-c2ccc(C(=O)Nc3ccccn3)cc2C)c2c(N)nccn12 [Example 85, 4-(8-amino-3-((S)-1-((E)-4-methoxybut-2-enoyl)piperidin-2-yl)imidazo[1,5-a]pyrazin-1-yl)-3-methyl-N-(pyridin-2-yl)benzamide] | <1000 |
| COC/C=C/C(=O)N1CCCC[C@H]1c1nc(-c2ccc(C(=O)Nc3ccncn3)cc2)c2c(N)nccn12 [Example 86, (S,E)-4-(8-amino-3-(1-(4-methoxybut-2-enoyl)piperidin-2-yl)imidazo[1,5-a]pyrazin-1-yl)-N-(pyrimidin-4-yl)benzamide] | <1000 |
| CCCc1ccnc(NC(=O)c2ccc(-c3nc([C@@H]4CCCN4C(=O)/C=C/COC)n4ccnc(N)c34)c(C)c2)c1 [Example 87, 4-(8-amino-3-((S)-1-((E)-4-methoxybut-2-enoyl)pyrrolidin-2-yl)imidazo[1,5-a]pyrazin-1-yl)-3-methyl-N-(4-propylpyridin-2-yl)benzamide] | <1000 |
| COC/C=C/C(=O)N1CCCC[C@H]1c1nc(-c2ccc(C(=O)Nc3nccc(C)n3)cc2)c2c(N)nccn12 [Example 88, (S,E)-4-(8-amino-3-(1-(4-methoxybut-2-enoyl)piperidin-2-yl)imidazo[1,5-a]pyrazin-1-yl)-N-(4-methylpyrimidin-2-yl)benzamide] | <1000 |
| Nc1nccn2c([C@@H]3CCCCN3C(=O)c3ccnc(Cl)n3)nc(-c3ccc(C(=O)Nc4ncccn4)cc3)c12 [Example 90, (S)-4-(8-amino-3-(1-(2-chloropyrimidine-4-carbonyl)piperidin-2-yl)imidazo[1,5-a]pyrazin-1-yl)-N-(pyrimidin-2-yl)benzamide] | <1000 |
| C=C(C(=O)N1CCC[C@H]1c1nc(-c2ccc(C(=O)Nc3ccccn3)cc2)c2c(N)nccn12)C(F)(F)F [Example 92, (S)-4-(8-amino-3-(1-(2-(trifluoromethyl)acryloyl)pyrrolidin-2-yl)imidazo[1,5-a]pyrazin-1-yl)-N-(pyridin-2-yl)benzamide] | <1000 |
| N#CCN1CCC[C@H]1c1nc(-c2ccc(C(=O)Nc3ccccn3)cc2)c2c(N)nccn12 [Example 94, (S)-4-(8-amino-3-(1-(cyanomethyl)pyrrolidin-2-yl)imidazo[1,5-a]pyrazin-1-yl)-N-(pyridin-2-yl)benzamide] | <1000 |
| Nc1nccn2c([C@@H]3CCCN3C(=O)/C=C/c3ccccc3)nc(-c3ccc(C(=O)Nc4ccccn4)cc3)c12 [Example 104, (S,E)-4-(8-amino-3-(1-cinnamoylpyrrolidin-2-yl)imidazo[1,5-a]pyrazin-1-yl)-N-(pyridin-2-yl)benzamide] | <1000 |

Source: patent US10239883B2, “4-imidazopyridazin-1-yl-benzamides as BTK inhibitors” (Merck Sharp & Dohme B.V., priority 2011, dated 2019)
